Read-outs that look alike come from different tables or passages of the source. One block for each compound: values may come before it.
Columns and labels:
CPTHR [1] = test: Competitive displacement of 125I-[Tyr34]hPTH(19-84) radioligand in C59 (OC59) cells; type: binding, mouse; settings: for Binding to the CPTHR: Example 2, either alone or in combination
Description: The human PTH peptides shown were tested for their ability to displace the ^125I-[Tyr^34]hPTH(19-84) tracer in C59 cells. Experiments were performed as described in FIG. 1. Results are expressed as the percentage of maximal specific binding observed in the absence of competing ligand and are shown as mean±standard deviation of triplicates in this representative experiment.
OC59 cells were incubated at 15° C. for 4 hr with ^125I[Tyr^34]hPTH(19-84) tracer (150,000 cpn/well) plus the indicated competing human PTH peptides. Results are means of triplicates.
The [Tyr^34]hPTH(19-84) peptide was radioiodinated with Na[^125I](2000 Ci/mmol) by the chloramine-T method and purified by HPLC, as previously described (Inomata, N., et al., Endocrinology 136:4732-4740 (1995)). For binding experiments, cells (100,000 cells/ml) were plated in 24-well dishes and cultured at 33° C. for 7 to 14 days. Confluent monolayers then were washed with 0.5 ml binding buffer [100 mM NaCl, 5 mM KCl, 2 mM CaCl2, 50 mM Tris-HCl (pH 7.8) plus 5% heat-inactivated horse serum] before incubation with ^125I-[Tyr^34]hPTH-(19-84) (100,000-200,000 cpm/well) in 0.5 ml binding buffer for 4 h at 15° C. Receptor number was ascertained by Scatchard analysis, using [Tyr^34]hPTH-(19-84) or hPTH(1-84) as competing ligand. […] In some experiments, cells were washed with acidic buffer (50 mM glycine, 150 mM NaCl, pH 4.0) to remove residual bound ligand, prior to addition of radioligand.

CPTHR [2] = test: Downregulation of CPTHR binding in C59 cells after pretreatment; type: cell-based, mouse; settings: for Downregulation of CPTHR binding: exposure 24 hr; for Radioligand binding, % of controls after drug removal: 24 h after removal; for Reduction of specific binding / Reduction of specific 125I-[Tyr34]hPTH(19-84) binding: preincubation 16 h
Description: Specific binding, is expressed as mean ± standard deviation of triplicates. * p<0.05, ** P<0.01.
For binding experiments, cells (100,000 cells/ml) were plated in 24-well dishes and cultured at 33° C. for 7 to 14 days. […] Receptor number was ascertained by Scatchard analysis, using [Tyr^34]hPTH-(19-84) or hPTH(1-84) as competing ligand. […] In some experiments, cells were washed with acidic buffer (50 mM glycine, 150 mM NaCl, pH 4.0) to remove residual bound ligand, prior to addition of radioligand.
(1 mM), forskolin (10 μM), insulin (100 ng/mL), IGF-1 ([…]) or dexamethasone (100 nM).

Gs-linked PTH receptors [3] = settings: F1 cells and osteoblastic subclones; cited from earlier work
PTH1R = molecular target: T1, PTH1R (Homo sapiens, UniProt Q03431); settings: cited from earlier work
T1 sequence (Q03431 27-593): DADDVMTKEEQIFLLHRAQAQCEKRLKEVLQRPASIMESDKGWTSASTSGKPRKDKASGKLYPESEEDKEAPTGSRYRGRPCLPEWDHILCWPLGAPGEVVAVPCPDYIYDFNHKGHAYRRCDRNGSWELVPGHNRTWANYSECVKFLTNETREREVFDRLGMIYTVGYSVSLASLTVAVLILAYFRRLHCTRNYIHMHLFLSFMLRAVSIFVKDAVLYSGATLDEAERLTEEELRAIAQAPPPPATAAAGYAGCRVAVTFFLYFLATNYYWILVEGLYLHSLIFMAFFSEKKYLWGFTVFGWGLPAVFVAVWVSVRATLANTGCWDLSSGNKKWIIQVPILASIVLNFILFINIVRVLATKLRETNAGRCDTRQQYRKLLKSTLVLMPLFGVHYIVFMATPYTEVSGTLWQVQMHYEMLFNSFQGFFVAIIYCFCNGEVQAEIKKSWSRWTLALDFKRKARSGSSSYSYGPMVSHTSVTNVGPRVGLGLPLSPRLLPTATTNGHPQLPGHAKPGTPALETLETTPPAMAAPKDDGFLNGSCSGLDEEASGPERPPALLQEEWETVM

Gs-linked PTH receptors [4] = test: Cyclic AMP accumulation in C cells (OC1, OC14, OC59); type: cell-based, mouse; settings: three C cells
Description: The buffer then was rapidly aspirated, the plates were frozen in liquid nitrogen, and the frozen cells were subsequently thawed directly into 0.5 ml of 50 mM HCl. Cell-associated cAMP in the acid extracts was measured using an RIΛ kit (NUN Life Science Products, Boston, Mass., U.S.A.). Results were expressed as picomoles of cAMP produced per well over 15 min.

OC14 cells [5] = test: Cell death by trypan blue staining in OC14 cells; type: cell-based, mouse
Description: OC14 cells were plated, cultured at 33° C. for 3 days and then incubated at 39° C. for 5-7 days before addition of PTH peptides for a further 16 hr, followed by trypan blue staining (see Example 1). A) Human PTH 1-84 dose response, B) Response to hPTH(1-84), 100 nM and hPTH(39-84), 1000 nM, C) Response to [Tyr^34]hPTH(24-84), 100 nM, D) Caspase dependance (“C”=controls) The Caspase-3 inhibitor DEVD (“D”) was added 1 hr prior to addition of 100 nM hPTH(1-84) (“P”). Results are expressed as mean±SD of quadruplicate determinations of the percentage of nonvital trypan blue-stained cells. * p<0.05, ** p<0.01.
Briefly, cells were plated at 50,000 cells/well in 24-well dishes at 33° C. and shifted to nonpermissive conditions (39° C.) after 2 days. Cells were grown at 39° C. for an additional 4-6 days in α-MEM supplemented with 2.5% of FBS and 1% PS and then treated with different hormones for additional 16-18 hr. Non-adherent cells were combined with adherent cells that were released from the cultures with trypsin-EDTA, centrifuged and resuspended in 0.1% trypan blue solution.

C×43 expression = test: Connexin 43 immunocytochemical staining in OC cells; type: cell-based, mouse; settings: 100 nM, 2 hr
Description: OC14 cells were plated on glass coverslips at 72,000 cells/cm^2, cultured at 33° C. for 2 days and then shifted at 39° C. for 3-5 days before stimulation with CPTHR ligands. OC14 cells were treated for 2 hr with (A) vehicle alone, (B) 100 nM hPTH(1-84) or (C) 1000 nm hPTH(39-84). Cells were fixed and stained for C×43 expression as described (see Example 1).
For Immunocytochemical analysis, cells were plated on glass chamber slides at 72,000 cells/cm^2, cultured for two days at 33° C. and then shifted for an additional 4-6 days at 39° C. Cells were treated with vehicle alone (0.1% TFA) or with the appropriate hormone for the time indicated. The immunocytochemical staining was performed as previously described (Kato, Y., et al., J. Bone Miner. Res. 12:2014-2023 (1997)). Briefly, cells were fixed in 3% paraformaldehyde/2% sucrose in PBS and permeabilized for 5 min. with 0.05% Triton-X 100 diluted in PBS. The fixed slides were blocked in 5% BSA in TBS-T buffer for 2 h at room temperature. The cells then were incubated with a 1:125 dilution of anti-C×43 monoclonal antibody for 30 min at room temperature. The bound antibody was detected using a Vectastain ABC kit, followed by staining with VIP substrate according to manufacturer's instructions (Vector Laboratories, Burlingame, Calif.). Counter staining was performed using 0.5% methyl green. […]

OC14 cells [6] = test: Apoptosis by Hoechst 33258 DNA staining in OC cells; type: cell-based, mouse; settings: 100 nM, 6 hr
Description: (§1) Cells plated on glass coverslips and maintained at 33° C. for 33 days were shifted to 39° C. for 5-7 days before addition of 100 nM hPTH(1-84) (B, D) or vehicle alone (A, C) for 6 hr. At the end of the incubations, cells were fixed and stained with Hoechst 33258 (A and B) or for TUNEL (C and D) (see Example 1). Arrows indicate apoptotic cells. 200× magnification.
(§2) The pyknotic fragmentation of nuclei typical of apoptotic cells was detected using Hoechst-33258 fluorescent dye (Sigma Co., St. Louis, Mo., U.S.A.). Briefly, cells were cultured on glass coverslips and maintained in culture at nonpermissive conditions for 4-6 days in (α-MEM supplemented with 2-5% of FBS and 1% PS. After exposure to the test hormones for 6 hr, culture medium was aspirated and cells were fixed in 4% paraformaldehyde in phosphate buffered solution and then stained with Hoechst-33258 ([…]) for 5 min at room temperature. Cells were washed and mounted with glycerol-PBS (9:1, v/v). The stained nuclei were visualized by fluorescence microscopy using DAPI filter. In some experiments, apoptotic cells were detected by the terminal deoxynucleotidyl transferase-mediated nick end labeling (TUNEL) reaction, using the In Situ Cell Death Detection Kit from Roche Molecular Biochemicals (Indianapolis, Ind., U.S.A.) following the manufacturer's instruction.

OC14 cells [7] = test: Apoptosis by TUNEL assay in OC cells; type: cell-based, mouse; settings: 100 nM, 6 hr
Description: as §1, §2

EC50 (CPTHR [1]; Example 2, PTH1R-null CPTHR-expressing calvarial-derived clonal cells, read-out: apparent EC50, competition of [Tyr34]125I-hPTH(19-84) tracer): 20000 nM
Compound: hPTH(24-54): Short synthetic human PTH peptide spanning both binding domains 24-27 and 53-54 (LRKKLQDVHNFVALGAPLAPRDAGSQRPRKK; Parathyroid hormone; UniProt P01270 55-85, looked up, fragment)

Compound: C=C1/C(=C\C=C2/CCC[C@]3(C)[C@@H]([C@H](C)CCCC(C)(C)O)CC[C@@H]23)C[C@@H](O)C[C@@H]1O [1,25(OH)2D3]
Downregulation of CPTHR binding (CPTHR [2]; 10 nM): No downregulation

Compound: CCCCCCCCCCCCCC(=O)O[C@@H]1[C@@H](C)[C@@]2(O)[C@@H](C=C(CO)C[C@]3(O)C(=O)C(C)=C[C@@H]23)[C@H]2C(C)(C)[C@]12OC(C)=O [TPA]
Radioligand binding, % of controls after drug removal (CPTHR [2]): 63%
Reduction of specific binding (CPTHR [2]; 10 nM): 48±12%

Compound: IGF-1: IGF-1
Downregulation of CPTHR binding (CPTHR [2]): No downregulation

Compound: hPTHrP(1-36): Human PTH-related peptide fragment 1-36
cAMP response (Gs-linked PTH receptors [3]): no detectable cAMP response

Compound: hPTH(50-60): Short synthetic human PTH peptide spanning residues 50-60 (RPRKKEDNVLV; Parathyroid hormone; UniProt P01270 81-91, looked up, fragment)
Binding to the CPTHR (CPTHR [1]): failed to bind

Compound: insulin: insulin
Downregulation of CPTHR binding (CPTHR [2]; 100 ng/mL): No downregulation

Compound: PTH(53-84): Carboxyl fragment 53-84 of intact PTH (KKEDNVLVESHEKSLGEADKADVNVLTKAKSQ; Parathyroid hormone; UniProt P01270 84-115, looked up, fragment)
Binding and activation of the PTH1R (PTH1R): neither bind nor activate

Compound: C[C@H](CCC(=O)O)C[C@H](C)C[C@H](C)C(=O)/C=C(\O)[C@H](C)C[C@H](C)C/C=C/[C@@H](C)[C@@H](O)[C@@H](C)[C@@H](O)C[C@@H]1CC[C@@](C)([C@H]2CC[C@@](C)([C@@H](C)O)O2)O1 [ionomycin]
Radioligand binding, % of controls after drug removal (CPTHR [2]): 100%
Reduction of specific binding (CPTHR [2]; 1 μM): 71±3%

Compound: hPTH(1-34): Amino-terminal human PTH fragment 1-34
Displacement of the tracer (CPTHR [1]; concentrations up to 1000 nM): did not displace the tracer significantly
Downregulation of CPTHR binding (CPTHR [2]; 1 μM): No downregulation
cAMP response (Gs-linked PTH receptors [4]): absence of a detectable cAMP response
Effect on cell death (trypan blue) (OC14 cells [5]; concentrations as high as 1000 nM): inactive
cAMP response (Gs-linked PTH receptors [3]): no detectable cAMP response

IC50 (CPTHR [1]; C59 cells, 4 h at 15° C.): 500 to 700 nM
IC50 relative to hPTH(1-84) and hPTH(19-84) (CPTHR [1]; OC cells): roughly 15 fold
Compound: hPTH(39-84): C-terminal human PTH fragment 39-84, purchased from Peninsula (APLAPRDAGSQRPRKKEDNVLVESHEKSLGEADKADVNVLTKAKSQ; Parathyroid hormone; UniProt P01270 70-115, looked up, fragment)
Downregulation of CPTHR binding (CPTHR [2]; 1 μM): No downregulation
Increase in trypan blue-stained cells over basal (OC14 cells [5]; 1000 nM, 16 hr): 1.5 fold
Binding and activation of the PTH1R (PTH1R): neither bind nor activate

Compound: hPTH(20-30): Short synthetic human PTH peptide spanning residues 20-30 (RVEWLRKKLQD; Parathyroid hormone; UniProt P01270 51-61, looked up, fragment)
Binding to the CPTHR (CPTHR [1]): failed to bind

Compound: hPTH(1-84): Recombinant human parathyroid hormone (1-84), the intact hormone
Reduction of specific 125I-[Tyr34]hPTH(19-84) binding (CPTHR [2]; 200 nM): 19±5%
Reduction of specific 125I-[Tyr34]hPTH(19-84) binding (CPTHR [2]; 1000 nM): 66±7%
cAMP response (Gs-linked PTH receptors [4]): absence of a detectable cAMP response
Expression of C×43 by immunostaining (C×43 expression): increased the expression of C×43
Nuclear pyknosis and chromatin condensation, Hoechst dye 33258 (OC14 cells [6]): increased nuclear pylulosis ;aid chromatin condensation
Apoptosis, TUNEL immunocytochemical assay (OC14 cells [7]): Increased apoptosis
Concentration of maximal effect upon cell death (OC14 cells [5]; 16 hr, trypan blue): 10 nM
EC50 (OC14 cells [5]; 16 hr, trypan blue, read-out: EC50, effect upon cell death): ~0.1 nM
Change in trypan blue-stained cells (OC14 cells [5]; after 16 hr): doubling
cAMP response (Gs-linked PTH receptors [3]): no detectable cAMP response

Source: US7270968B2, “PTH analogs for renal osteodystrophy and related uses” (The General Hospital Corporation, priority 2000, dated 2007)
